Columns and labels:
PKCε/RACK2 interaction = target: T1, PKCε/RACK2 interaction (Homo sapiens, UniProt P35606); assay: PKCε/RACK2 in vitro binding assay (ELISA-based); conditions: 25 μM solution, Figure 2A
T1 sequence (P35606 1-906): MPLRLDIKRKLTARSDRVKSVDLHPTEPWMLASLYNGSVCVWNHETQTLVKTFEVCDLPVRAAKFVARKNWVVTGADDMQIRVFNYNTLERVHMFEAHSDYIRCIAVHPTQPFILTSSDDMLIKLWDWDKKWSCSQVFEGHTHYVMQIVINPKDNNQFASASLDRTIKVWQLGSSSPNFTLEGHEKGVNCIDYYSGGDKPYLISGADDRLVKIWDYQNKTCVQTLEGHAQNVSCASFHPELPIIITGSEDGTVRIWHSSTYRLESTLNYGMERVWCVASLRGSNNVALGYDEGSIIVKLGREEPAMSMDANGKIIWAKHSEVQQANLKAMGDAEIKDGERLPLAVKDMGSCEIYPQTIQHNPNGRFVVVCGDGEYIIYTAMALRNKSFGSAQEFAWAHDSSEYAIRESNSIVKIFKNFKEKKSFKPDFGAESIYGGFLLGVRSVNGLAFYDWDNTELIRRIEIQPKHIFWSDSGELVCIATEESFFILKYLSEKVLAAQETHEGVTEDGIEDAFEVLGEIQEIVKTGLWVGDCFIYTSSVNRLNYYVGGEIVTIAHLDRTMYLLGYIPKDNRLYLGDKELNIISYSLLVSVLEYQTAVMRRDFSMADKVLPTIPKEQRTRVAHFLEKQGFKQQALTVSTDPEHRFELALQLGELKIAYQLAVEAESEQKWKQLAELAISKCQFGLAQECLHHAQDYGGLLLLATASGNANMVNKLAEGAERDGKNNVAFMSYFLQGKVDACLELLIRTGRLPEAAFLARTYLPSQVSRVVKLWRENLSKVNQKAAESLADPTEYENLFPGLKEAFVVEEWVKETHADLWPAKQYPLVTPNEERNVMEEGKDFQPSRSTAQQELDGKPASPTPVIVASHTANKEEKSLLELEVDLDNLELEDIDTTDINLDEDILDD
Procedure: Recombinant RACK2 tagged with maltose-binding protein (RACK2-MBP) was purified on columns with amylose resin (New England Biolabs, Ipswich, MA) as described by the manufacturer. The recombinant protein was analyzed by Coomassie Blue staining and Western blotting after SDS–PAGE. Aliquots were stored in liquid nitrogen. The interaction between PKCε and RACK2 was measured using an ELISA-based assay. The 96-well EIA/RIA high binding plates (Costar) were coated with 100 ng of recombinant PKCε (ProQinase, Freiburg, Germany) in buffer A (20 mM Tris-HCl/100 mM NaCl, pH 7.5) at 4 °C on a shaker with gentle agitation overnight. The plate was washed twice with 225 μL/well buffer A. After blocking of unspecific binding sites with 225 μL of sterile-filtered 3% bovine serum albumin (BSA; Sigma-Aldrich, St. Louis, MO) in buffer A at room temperature for 3 h, the plate was washed twice with 225 μL of this buffer. PKCε was left untreated or activated by addition of 60 μg/mL phosphatidylserine (Sigma-Aldrich) and 100 nM TPA (Sigma-Aldrich) in a volume of 50 μL of buffer A for 10 min at 30 °C. […] Color development was measured on a plate reader at a wavelength of 420 nm.

PKCδ = PKCδ translocation, cell fractionation and Western blotting in PC-3 cells; type: cell-based, human; conditions: TPA, Figure 3
Procedure: For PKCε translocation PC-3 cells were starved for 16 h, treated with 8 for 30 min, stimulated with 50 nM TPA for 5 min, lysed, and fractionated with a CNMCS/CNM compartmental protein extraction kit (BioChain Institute, Newark, CA). Western blotting was performed by a standard procedure as described by Garczarczyk et al.[27],[40] Cytosolic and membrane fractions were loaded onto SDS gels and transferred to an Immobilon membrane (Millipore, Billerica, MA). The membranes were incubated with rabbit polyclonal IgG antibodies for detection of PKCε (Santa Cruz Biotechnology; dilution 1:2000), for PKCε phosphoSer^729 (Millipore; dilution 1:1000), for PKCδ (Santa Cruz Biotechnology; dilution 1:1000), and for MARCKS phosphoSer152/156 (Cell Signaling Technology, Danvers, MA; dilution 1:1000). For the loading control tubulin (Santa Cruz Biotechnology; dilution 1:1000), and as marker for the membrane fraction, an IGFI-βR rabbit polyclonal IgG antibody (Santa Cruz; dilution 1:1000) and, as secondary antibodies, peroxidase-conjugated AffiniPure goat anti-rabbit IgG (Jackson ImmunoResearch Laboratories, West Grove, PA; dilution 1:20000) were used. GAPDH (Chemicon, Millipore, Billerica, MA; dilution 1:10000) was used as loading control for the cytosolic fraction. […]

RSK2 = RSK2 (Homo sapiens, UniProt P51812); assay: Kinase profiling (Dundee), RSK2; type: biochemical; conditions: 25 μM solution
Chain of RSK2 (P51812 whole entry, species assumed): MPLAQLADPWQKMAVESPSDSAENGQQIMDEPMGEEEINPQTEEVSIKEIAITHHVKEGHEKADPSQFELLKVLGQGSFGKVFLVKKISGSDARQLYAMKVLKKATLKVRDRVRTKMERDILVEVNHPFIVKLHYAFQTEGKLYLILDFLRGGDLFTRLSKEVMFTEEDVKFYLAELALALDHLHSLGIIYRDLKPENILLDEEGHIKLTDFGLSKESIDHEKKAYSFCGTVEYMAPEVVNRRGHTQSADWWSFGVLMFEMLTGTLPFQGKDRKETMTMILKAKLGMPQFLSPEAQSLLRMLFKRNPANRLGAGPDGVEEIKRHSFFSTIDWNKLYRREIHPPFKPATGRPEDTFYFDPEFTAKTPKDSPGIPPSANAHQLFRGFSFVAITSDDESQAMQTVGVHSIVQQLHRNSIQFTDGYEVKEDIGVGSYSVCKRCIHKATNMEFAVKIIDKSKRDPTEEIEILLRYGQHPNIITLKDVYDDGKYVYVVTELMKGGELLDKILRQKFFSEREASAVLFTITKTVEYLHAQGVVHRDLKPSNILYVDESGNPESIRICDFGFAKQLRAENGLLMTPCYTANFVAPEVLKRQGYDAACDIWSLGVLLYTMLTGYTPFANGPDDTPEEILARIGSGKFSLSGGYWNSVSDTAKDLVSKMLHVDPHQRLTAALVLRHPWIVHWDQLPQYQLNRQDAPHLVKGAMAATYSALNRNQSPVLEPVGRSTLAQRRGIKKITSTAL

Q: How did the “PKCε/RACK2 interaction, % of untreated controls” value (PKCε/RACK2 interaction) turn out when `CC(=O)c1cccc(NC(=O)c2sc3nc4cc5c(cc4cc3c2N)OCCO5)c1` [Compound 8, N-(3-acetylphenyl)-9-amino-2,3-dihydro-1,4-dioxino[2,3-g]thieno[2,3-b]quinoline-8-carboxamide] was run?
A: approximately 10 % of untreated controls

Q: And the “PKCδ in the membrane” value (PKCδ)?
A: did not decrease

Q: And the “RSK2 activity, % of control” value (RSK2)?
A: 27 % of control
